Laboratory results reported in PubChem BioAssay AID192 (DTP/NCI, 2004).
Where “and” joins values, the source holds several entries; their conditions need not be identical. Identical values can stand only once. Inconclusive results and toxic doses are left out.

Tested on: BDF1 mice, B16 melanoma ip, median survival T/C
Test: NCI In Vivo Anticancer Drug Screen. Data for tumor model B16 Melanoma (intraperitoneal) in B6D2F1 (BDF1) mice
Conditions: endpoint: median survival time, higher = longer survival
How it was run: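 Read-out: survival or tumor size, given as treated/control ratio. Controls received vehicle only; animals bore transplantable tumors.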

[1] = dose: 25.0 mg/kg/injection, schedule: Q01DX009 (ip), vehicle: other
[2] = dose: 50.0 mg/kg/injection, schedule: Q01DX009 (ip), vehicle: other
[3] = dose: 100.0 mg/kg/injection, schedule: Q01DX009 (ip), vehicle: other
[4] = dose: 200.0 mg/kg/injection, schedule: Q01DX009 (ip), vehicle: saline with Tween-80
[5] = dose: 400.0 mg/kg/injection, schedule: Q01DX009 (ip), vehicle: saline with Tween-80
[6] = dose: 50.0 mg/kg/injection, schedule: Q01DX009 (ip), vehicle: saline with Tween-80
[7] = dose: 100.0 mg/kg/injection, schedule: Q01DX009 (ip), vehicle: saline with Tween-80
[8] = dose: 3.13 mg/kg/injection, schedule: Q01DX009 (ip), vehicle: saline with Tween-80
[9] = dose: 6.25 mg/kg/injection, schedule: Q01DX009 (ip), vehicle: saline with Tween-80
[10] = dose: 12.5 mg/kg/injection, schedule: Q01DX009 (ip), vehicle: saline with Tween-80
[11] = dose: 12.5 mg/kg/injection, schedule: Q01DX009 (ip), vehicle: saline
[12] = dose: 25.0 mg/kg/injection, schedule: Q01DX009 (ip), vehicle: saline
[13] = dose: 50.0 mg/kg/injection, schedule: Q01DX009 (ip), vehicle: saline
[14] = dose: 150.0 mg/kg/injection, schedule: Q04DX003 (ip), vehicle: Klucel (hydroxypropylcellulose) (HPC)
[15] = dose: 3.0 mg/kg/injection, schedule: Q01DX009 (ip), vehicle: saline with Tween-80
[16] = dose: 6.0 mg/kg/injection, schedule: Q01DX009 (ip), vehicle: saline with Tween-80

## CCCCCCCCC(=O)N(C)OC
dose: 3.13 mg/kg/injection, schedule: Q04DX003 (ip), vehicle: saline
  T/C: 107 % of control
dose: 6.25 mg/kg/injection, schedule: Q04DX003 (ip), vehicle: saline
  T/C: 121 % of control
dose: 12.5 mg/kg/injection, schedule: Q04DX003 (ip), vehicle: saline
  T/C: 105 % of control

## O=S(=O)(O)c1ccc(N=Nc2ccc(O)cc2)cc1
dose: 50.0 mg/kg/injection, schedule: Q04DX003 (ip), vehicle: Klucel (hydroxypropylcellulose) (HPC)
  T/C: 105 % of control
dose: 100.0 mg/kg/injection, schedule: Q04DX003 (ip), vehicle: Klucel (hydroxypropylcellulose) (HPC)
  T/C: 97 % of control
dose: 200.0 mg/kg/injection, schedule: Q04DX003 (ip), vehicle: Klucel (hydroxypropylcellulose) (HPC)
  T/C: 91 % of control

## Cc1ccc(C(=O)/C=C/c2ccccc2)cc1
[1]
  T/C: 100 % of control
[2]
  T/C: 105 % of control
[3]
  T/C: 107 % of control
dose: 200.0 mg/kg/injection, schedule: Q01DX009 (ip), vehicle: other
  T/C: 100 % of control

## Cc1ccc(C(=O)[O][Hg][CH2]C2COC([CH2][Hg][O]C(=O)c3ccc(C)cc3)CO2)cc1 (stereo unspecified)
dose: 0.09 mg/kg/injection, schedule: Q01DX009 (ip), vehicle: Klucel (hydroxypropylcellulose) (HPC)
  T/C: 92 % of control
dose: 0.19 mg/kg/injection, schedule: Q01DX009 (ip), vehicle: Klucel (hydroxypropylcellulose) (HPC)
  T/C: 87 % of control
dose: 0.39 mg/kg/injection, schedule: Q01DX009 (ip), vehicle: Klucel (hydroxypropylcellulose) (HPC)
  T/C: 99 % of control
dose: 0.78 mg/kg/injection, schedule: Q01DX009 (ip), vehicle: Klucel (hydroxypropylcellulose) (HPC)
  T/C: 100 % of control
dose: 1.56 mg/kg/injection, schedule: Q01DX009 (ip), vehicle: Klucel (hydroxypropylcellulose) (HPC)
  T/C: 100 % of control
dose: 3.12 mg/kg/injection, schedule: Q01DX009 (ip), vehicle: Klucel (hydroxypropylcellulose) (HPC)
  T/C: 94 % of control and 106 % of control
dose: 6.25 mg/kg/injection, schedule: Q01DX009 (ip), vehicle: Klucel (hydroxypropylcellulose) (HPC)
  T/C: 92 % of control and 107 % of control
dose: 12.5 mg/kg/injection, schedule: Q01DX009 (ip), vehicle: Klucel (hydroxypropylcellulose) (HPC)
  T/C: 94 % of control and 99 % of control
dose: 25.0 mg/kg/injection, schedule: Q01DX009 (ip), vehicle: Klucel (hydroxypropylcellulose) (HPC)
  T/C: 94 % of control and 96 % of control
dose: 50.0 mg/kg/injection, schedule: Q01DX009 (ip), vehicle: Klucel (hydroxypropylcellulose) (HPC)
  T/C: 89 % of control and 94 % of control

## CO[C@H]1C[C@@H]2CC[C@@H](C)[C@@](O)(O2)C(=O)C(=O)N2CCCC[C@H]2C(=O)O[C@H]([C@H](C)C[C@@H]2CC[C@@H](O)[C@H](OC)C2)CC(=O)[C@H](C)C=C(C)[C@@H](O)[C@@H](OC)C(=O)[C@H](C)C[C@H](C)/C=C/C=C/C=C1C
dose: 190.0 mg/kg/injection, schedule: Q01DX001 (ip), vehicle: saline with Tween-80
  T/C: 159 % of control
[4]
  T/C: 110 % of control
dose: 380.0 mg/kg/injection, schedule: Q01DX001 (ip), vehicle: saline with Tween-80
  T/C: 112 % of control
[5]
  T/C: 109 % of control
dose: 760.0 mg/kg/injection, schedule: Q01DX001 (ip), vehicle: saline with Tween-80
  T/C: 123 % of control

## COB1OB(OC)OB(OC)O1
[6]
  T/C: 103 % of control
[7]
  T/C: 104 % of control
dose: 100.0 mg/kg/injection, schedule: Q04DX003 (ip), vehicle: saline with Tween-80
  T/C: 105 % of control
[4]
  T/C: 102 % of control
dose: 200.0 mg/kg/injection, schedule: Q04DX003 (ip), vehicle: saline with Tween-80
  T/C: 112 % of control
[5]
  T/C: 98 % of control
dose: 400.0 mg/kg/injection, schedule: Q04DX003 (ip), vehicle: saline with Tween-80
  T/C: 110 % of control

## c1ccc(C2CCCCCC2)cc1
dose: 6.25 mg/kg/injection, schedule: Q01DX009 (ip), vehicle: other
  T/C: 108 % of control
dose: 12.5 mg/kg/injection, schedule: Q01DX009 (ip), vehicle: other
  T/C: 98 % of control
[1]
  T/C: 111 % of control
[2]
  T/C: 109 % of control
[3]
  T/C: 89 % of control

## CO[C@@H]1[C@H](O)CC[C@]2(CO2)[C@H]1[C@@]1(C)O[C@@H]1CC=C(C)C
[8]
  T/C: 104 % of control
[9]
  T/C: 102 % of control
[10]
  T/C: 102 % of control
dose: 25.0 mg/kg/injection, schedule: Q01DX009 (ip), vehicle: saline with Tween-80
  T/C: 108 % of control
[6]
  T/C: 123 % of control

## CCCNCCCN
[11]
  T/C: 102 % of control
[12]
  T/C: 105 % of control
[13]
  T/C: 89 % of control

## C[n+]1c(-c2cccc(OCCCCCCCOc3cccc(-c4c5cc(N)ccc5c5ccc(N)cc5[n+]4C)c3)c2)c2cc(N)ccc2c2ccc(N)cc21
dose: 0.02 mg/kg/injection, schedule: Q01DX009 (ip), vehicle: water
  T/C: 95 % of control
dose: 0.04 mg/kg/injection, schedule: Q01DX009 (ip), vehicle: water
  T/C: 123 % of control

## Cc1cc2[nH]c(=O)[nH]c2cc1C
[6]
  T/C: 97 % of control
[7]
  T/C: 90 % of control

## CN1NCc2cncnc21
[6]
  T/C: 107 % of control
[7]
  T/C: 101 % of control
[4]
  T/C: 97 % of control

## CCn1c(O)c(C=N)c(=O)n(CC)c1=O
[14]
  T/C: 90 % of control

## CC(=O)CC(=O)N1CCN(C(=O)CC(C)=O)CC1
dose: 100.0 mg/kg/injection, schedule: Q01DX009 (ip), vehicle: saline
  T/C: 87 % of control
dose: 200.0 mg/kg/injection, schedule: Q01DX009 (ip), vehicle: saline
  T/C: 87 % of control
dose: 400.0 mg/kg/injection, schedule: Q01DX009 (ip), vehicle: saline
  T/C: 91 % of control

## O=C(/C(=N\Nc1ccc([N+](=O)[O-])cc1)c1ccccc1)c1ccccc1
[8]
  T/C: 100 % of control
[9]
  T/C: 95 % of control
[10]
  T/C: 90 % of control and 93 % of control
[6]
  T/C: 90 % of control

## Cc1cc(=O)[nH]c2ccc(-c3ccc4[nH]c(=O)cc(C)c4c3)cc12
dose: 100.0 mg/kg/injection, schedule: Q01DX009 (ip), vehicle: Klucel (hydroxypropylcellulose) (HPC)
  T/C: 96 % of control
dose: 200.0 mg/kg/injection, schedule: Q01DX009 (ip), vehicle: Klucel (hydroxypropylcellulose) (HPC)
  T/C: 93 % of control

## N=C(N)NC(=N)Nc1ccc(NC(=O)Nc2ccc(Nc3c4ccccc4nc4cc([N+](=O)[O-])ccc34)cc2)cc1
dose: 0.8 mg/kg/injection, schedule: Q01DX009 (ip), vehicle: water
  T/C: 98 % of control
dose: 1.6 mg/kg/injection, schedule: Q01DX009 (ip), vehicle: water
  T/C: 100 % of control
dose: 3.13 mg/kg/injection, schedule: Q01DX009 (ip), vehicle: water
  T/C: 102 % of control
dose: 6.25 mg/kg/injection, schedule: Q01DX009 (ip), vehicle: water
  T/C: 104 % of control
dose: 12.5 mg/kg/injection, schedule: Q01DX009 (ip), vehicle: water
  T/C: 94 % of control

## CC(C)C(=O)[O][Sn]([c]1ccccc1)([c]1ccccc1)[c]1ccccc1
[15]
  T/C: 108 % of control
[16]
  T/C: 105 % of control
dose: 12.0 mg/kg/injection, schedule: Q01DX009 (ip), vehicle: saline with Tween-80
  T/C: 124 % of control
[10]
  T/C: 100 % of control

## Cc1ccc(OC(=O)/C=C/C(=O)Oc2ccc(C)cc2)cc1
dose: 75.0 mg/kg/injection, schedule: Q04DX003 (ip), vehicle: Klucel (hydroxypropylcellulose) (HPC)
  T/C: 89 % of control
[14]
  T/C: 94 % of control
dose: 300.0 mg/kg/injection, schedule: Q04DX003 (ip), vehicle: Klucel (hydroxypropylcellulose) (HPC)
  T/C: 100 % of control

## CC(C(=O)N1c2ccccc2Sc2ccccc21)[N+]1(C)CCCC1 (stereo unspecified)
dose: 3.12 mg/kg/injection, schedule: Q01DX009 (ip), vehicle: saline
  T/C: 93 % of control
dose: 6.25 mg/kg/injection, schedule: Q01DX009 (ip), vehicle: saline
  T/C: 93 % of control
[11]
  T/C: 95 % of control
[12]
  T/C: 91 % of control
[13]
  T/C: 100 % of control

## COc1ccc([I+]c2ccccc2)cc1
dose: 0.75 mg/kg/injection, schedule: Q01DX009 (ip), vehicle: saline with Tween-80
  T/C: 95 % of control
dose: 1.5 mg/kg/injection, schedule: Q01DX009 (ip), vehicle: saline with Tween-80
  T/C: 97 % of control
[15]
  T/C: 102 % of control
[16]
  T/C: 93 % of control

## CCCCNC(=O)Nc1ccc(C(=O)OCCCC)cc1
[6]
  T/C: 96 % of control
[7]
  T/C: 95 % of control
[4]
  T/C: 93 % of control
